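Protocol summary: plate cells (96-well), add compound at 5 concentrations, incubate 48 h, interpolate endpoints linearly. At the GI50, growth is halved.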 Calls of active or inactive are those of the source. Cut-off read from the data, not from the text of the source: active = GI50 up to about 1.1 µM and inactive = higher.
Legend:
Test in all cases: DTP human tumour cell line panel, 48 h
Hs-578T = tested on: Hs-578T
HT-29 = tested on: HT-29
OVCAR-4 = tested on: OVCAR-4
SK-OV-3 = tested on: SK-OV-3
PC-3 = tested on: PC-3
ACHN = tested on: ACHN
RXF 393 = tested on: RXF 393
DU-145 = tested on: DU-145
NCI-H460 = tested on: NCI-H460
A549 = tested on: A549
SF-539 = tested on: SF-539
NCI-H226 = tested on: NCI-H226
COLO 205 = tested on: COLO 205
UACC-62 = tested on: UACC-62
HCC 2998 = tested on: HCC 2998
Malme-3M = tested on: Malme-3M
U-251 = tested on: U-251
SF-268 = tested on: SF-268
OVCAR-8 = tested on: OVCAR-8

Measured: GI50

CCOC(=O)c1cn2c(n1)sc1cc(OC)ccc12
inactive: Hs-578T 21 µM | HT-29 2.82 µM | OVCAR-4 > 100 µM | SK-OV-3 30.1 µM | PC-3 15.2 µM | ACHN 8.75 µM | RXF 393 13.8 µM | DU-145 4.07 µM | NCI-H460 29.8 µM | A549 7.38 µM | SF-539 2.95 µM | NCI-H226 25.1 µM | COLO 205 3.4 µM | UACC-62 8.63 µM | HCC 2998 31 µM | Malme-3M 27.6 µM | U-251 2.81 µM | SF-268 27.4 µM | OVCAR-8 6.21 µM

COc1cc(/C=C2\C[C@H]3[C@@H]4CC=C5C[C@@H](N6CCCC6)CC[C@]5(C)[C@H]4CC[C@]3(C)[C@H]2OC(C)=O)cc(OC)c1OC
inactive: Hs-578T 17.8 µM | HT-29 10 µM | OVCAR-4 18.2 µM | SK-OV-3 15.3 µM | PC-3 14.2 µM | ACHN 18.9 µM | RXF 393 11.5 µM | DU-145 17.3 µM | A549 15.3 µM | NCI-H226 24.8 µM | COLO 205 12.9 µM | UACC-62 17.5 µM | HCC 2998 2.38 µM | Malme-3M 21.5 µM | U-251 15.8 µM | SF-268 14.6 µM | OVCAR-8 15 µM

COc1ccc2[nH]c3c(c2c1)CC(=S)N1CCCC(CC3=O)C1 (stereo not given)
inactive: Hs-578T 44 µM | HT-29 45.4 µM | OVCAR-4 58.3 µM | SK-OV-3 90.8 µM | PC-3 37.2 µM | ACHN 38.8 µM | RXF 393 20.7 µM | DU-145 62.4 µM | NCI-H460 31.8 µM | A549 32.4 µM | NCI-H226 91.6 µM | COLO 205 31.3 µM | UACC-62 39 µM | HCC 2998 35.6 µM | Malme-3M 43.3 µM | U-251 33.3 µM | SF-268 45 µM | OVCAR-8 93.3 µM

Cc1nc2cc(C(F)(F)F)ccc2[nH]c1=O
inactive: Hs-578T 21.9 µM | HT-29 > 100 µM | OVCAR-4 > 100 µM | SK-OV-3 > 100 µM | PC-3 > 100 µM | ACHN > 100 µM | RXF 393 > 100 µM | DU-145 > 100 µM | NCI-H460 > 100 µM | A549 > 100 µM | SF-539 > 100 µM | NCI-H226 > 100 µM | COLO 205 > 100 µM | UACC-62 87.7 µM | HCC 2998 > 100 µM | Malme-3M > 100 µM | U-251 > 100 µM | SF-268 > 100 µM | OVCAR-8 > 100 µM

CCN1CC2(C)CCC(OC)C34C5CC6CCC(O)(C5C(=O)O6)C(C(O)C23)C14 (stereo not given)
inactive: Hs-578T > 100 µM | HT-29 > 100 µM | OVCAR-4 > 100 µM | SK-OV-3 > 100 µM | PC-3 > 100 µM | ACHN > 100 µM | RXF 393 > 100 µM | DU-145 > 100 µM | NCI-H460 > 100 µM | A549 > 100 µM | SF-539 > 100 µM | COLO 205 > 100 µM | UACC-62 > 100 µM | HCC 2998 > 10 µM | Malme-3M > 100 µM | U-251 > 100 µM | SF-268 > 100 µM | OVCAR-8 > 100 µM

C[C@@H](CC(O)C(O)C(C)(C)O)C1CCC23CC12CCC1[C@@]2(C)CCC(=O)C(C)(C)C2CC(OC2OC(CO)C(O)C(O)C2O)[C@]13C (stereo not given in full)
inactive: Hs-578T > 10 µM | HT-29 > 10 µM | OVCAR-4 > 10 µM | SK-OV-3 > 10 µM | PC-3 > 10 µM | ACHN > 10 µM | RXF 393 > 10 µM | DU-145 > 10 µM | NCI-H460 > 10 µM | A549 > 10 µM | SF-539 > 10 µM | NCI-H226 > 10 µM | COLO 205 > 10 µM | UACC-62 > 10 µM | HCC 2998 > 10 µM | Malme-3M > 10 µM | U-251 > 10 µM | SF-268 > 10 µM | OVCAR-8 > 10 µM
